Data from ChEMBL document CHEMBL3603825, “Synthesis and evaluation of arylpiperazine-reverse amides as biased dopamine D3 receptor ligands” (Bioorg Med Chem, 2015).
“And” between values parts separate entries of the source, which are not always exact repeats. Identical values can stand only once.

Columns and labels:
D(3) dopamine receptor [1] = molecular target: T1, D(3) dopamine receptor (Homo sapiens, UniProt P35462); test: Displacement of [3H]-sulpiride from human dopamine D3 receptor expressed in HEK293 cells at 100 nM after 150 mins by liquid scintillation counting; assay type: cell-based
D(2) dopamine receptor [2] = molecular target: T2, D(2) dopamine receptor (Homo sapiens, UniProt P14416); test: Displacement of [3H]-sulpiride from human dopamine D2 receptor expressed in HEK293 cells at 100 nM after 150 mins by liquid scintillation counting; assay type: cell-based
D(3) dopamine receptor [3] = molecular target: T1, D(3) dopamine receptor; test: Displacement of [3H]-sulpiride from human dopamine D3 receptor expressed in HEK293 cells after 150 mins by liquid scintillation counting; assay type: cell-based
Homo sapiens = species on record: Homo sapiens; test: Selectivity ratio of Ki for human dopamine D2 receptor to Ki for human dopamine D3 receptor
D(2) dopamine receptor [4] = molecular target: T2, D(2) dopamine receptor; test: Displacement of [3H]-sulpiride from human dopamine D2 receptor expressed in HEK293 cells after 150 mins by liquid scintillation counting; assay type: cell-based

T1 sequence (P35462 whole entry): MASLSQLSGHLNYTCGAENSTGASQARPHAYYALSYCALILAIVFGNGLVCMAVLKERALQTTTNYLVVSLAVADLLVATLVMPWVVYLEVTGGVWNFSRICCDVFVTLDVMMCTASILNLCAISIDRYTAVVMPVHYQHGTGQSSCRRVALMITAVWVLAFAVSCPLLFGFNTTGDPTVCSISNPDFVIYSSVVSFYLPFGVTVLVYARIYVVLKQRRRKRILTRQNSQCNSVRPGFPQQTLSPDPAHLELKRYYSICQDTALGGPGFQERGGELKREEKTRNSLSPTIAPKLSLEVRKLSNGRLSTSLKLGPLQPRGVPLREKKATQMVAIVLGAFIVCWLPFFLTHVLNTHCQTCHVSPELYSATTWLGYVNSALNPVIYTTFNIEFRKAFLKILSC
T2 sequence (P14416 whole entry): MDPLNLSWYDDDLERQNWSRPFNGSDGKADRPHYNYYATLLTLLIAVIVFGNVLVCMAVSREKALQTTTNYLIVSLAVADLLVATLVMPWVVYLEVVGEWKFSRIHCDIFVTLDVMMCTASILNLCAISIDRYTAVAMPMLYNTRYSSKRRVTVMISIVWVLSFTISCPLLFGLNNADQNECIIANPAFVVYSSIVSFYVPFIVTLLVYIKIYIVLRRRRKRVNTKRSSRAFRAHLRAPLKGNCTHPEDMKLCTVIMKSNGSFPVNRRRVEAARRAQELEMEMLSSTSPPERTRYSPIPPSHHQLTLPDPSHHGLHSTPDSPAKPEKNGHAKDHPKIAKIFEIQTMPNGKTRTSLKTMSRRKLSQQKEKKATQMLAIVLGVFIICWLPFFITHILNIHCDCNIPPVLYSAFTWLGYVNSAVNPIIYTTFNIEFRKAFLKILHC

| Compound | inhibition (D(3) dopamine receptor [1]) | inhibition (D(2) dopamine receptor [2]) | Ki (D(3) dopamine receptor [3]) [µM] | Ratio Ki (Homo sapiens) | Ki (D(2) dopamine receptor [4]) [µM] |
| --- | --- | --- | --- | --- | --- |
| O=C(CCCCN1CCN(c2cccc(C(F)(F)F)c2)CC1)Nc1nc2ccccc2[nH]1 | 27.7% and 34.9% | 34% and 14.3% |  |  |  |
| O=C(CCCCN1CCN(c2ccccc2F)CC1)Nc1nc2ccccc2s1 | 75.1% and 63.1% |  | 0.0039 | 45 | 0.175 |
| O=C(CCCCN1CCN(c2ccc(Cl)cc2)CC1)Nc1nc2ccccc2o1 | 56.1% | 40.9% |  |  |  |
| O=C(CCCCN1CCN(c2ccc(Cl)cc2)CC1)Nc1nc2ccccc2[nH]1 | 35.5% | 29.9% |  |  |  |
| O=C(CCCCN1CCC(O)(c2ccc(Cl)cc2)CC1)Nc1nc2ccccc2s1 | 25.8% and 7.9% | 33.3% and 24.8% |  |  |  |
| O=C(CCCCN1CCN(c2ccc(Cl)cc2Cl)CC1)Nc1nc2ccccc2s1 | 46% and 48.3% | 14.5% and 15.2% | 0.0876 | 63.8 | 5.59 |
| O=C(CCCCN1CCN(c2cccc(Cl)c2Cl)CC1)Nc1nc2ccccc2s1 | 34.8% and 12.8% | 30.1% and 6.9% |  |  |  |
| COc1ccc2nc(NC(=O)CCCCN3CCN(c4ccc(Cl)cc4F)CC3)sc2c1 | 33.4% and 28.7% | 3.1% and 2.6% |  |  |  |
| COc1ccc2nc(NC(=O)CCCCN3CCN(c4ccccc4Cl)CC3)sc2c1 | 60.5% and 81.6% | 78.8% and 54.5% |  |  |  |

The next lines start with the values.

| inhibition (D(3) dopamine receptor [1]) | inhibition (D(2) dopamine receptor [2]) | Ki (D(3) dopamine receptor [3]) [µM] | Ratio Ki (Homo sapiens) | Ki (D(2) dopamine receptor [4]) [µM] | Compound |
| --- | --- | --- | --- | --- | --- |
|  |  | 0.0094 | 21 | 0.197 | COc1ccc2nc(NC(=O)CCCCN3CCN(c4ccc(Cl)cc4)CC3)sc2c1 |
| 65.2% | 57.3% |  |  |  | O=C(CCCCN1CCN(c2ccc(Cl)cc2)CC1)Nc1nc2ccccc2s1 |
| 45.2% | 30.2% |  |  |  | O=C(CCCCN1CCN(c2ccc(Cl)cc2)CC1)Nc1nc2ccc([N+](=O)[O-])cc2s1 |
| 13.4% | 1% |  |  |  | Cc1ccc2nc(NC(=O)CCCCN3CCN(c4ccc(Cl)cc4)CC3)sc2c1 |
| 1.7% | -4.1% |  |  |  | O=C(CCCCN1CCN(c2ccc(Cl)cc2)CC1)Nc1nc2cc(Cl)ccc2o1 |
| 30.3% and 26.2% | 7% and 11% |  |  |  | O=C(CCCCN1CCN(c2ccc(Cl)cc2)CC1)Nc1nc2ccc(Cl)cc2s1 |
